In US8449898B2 (priority 2007, dated 2013):
Like-named read-outs stand apart in the source and are kept apart here.

How the values were obtained:
[1] = test system: Phytophthora infestans (the causal agent of tomato late blight); experiment: whole plant or invertebrate; type: in vivo; details: Phytophthora infestans
[2] = test system: Pseudoperonospora cubensis (the causal agent of cucumber downy mildew); experiment: Test B: cucumber downy mildew, preventive spray on cucumber seedlings; type: in vivo; details: Pseudoperonospora cubensis

Which results are given for Cc1cc(C(F)(F)F)nn1CC(=O)N1CCC(c2nc(C3=NOC(c4ccccc4)C3)cs2)CC1 (centres unmarked) [Compound 1, 4-[4-[4,5-dihydro-5-phenyl-3-isoxazolyl]-2-thiazolyl]-1-[[5-methyl-3-(trifluoromethyl)-1H-pyrazol-1-yl]acetyl]piperidine]?
pest or weed control at 0.05 ppm ([1]; read-out: TLB Obsd (disease control rating), Table A, Compound 1 alone 0.05 ppm): 34%; pest or weed control at 0.1 ppm ([1]; read-out: TLB Obsd (disease control rating), Table A, Compound 1 alone 0.1 ppm): 78%; pest or weed control at 0.15 ppm ([1]; read-out: TLB Obsd (disease control rating), Table A, Compound 1 alone 0.15 ppm): 97%; pest or weed control at 0.2 ppm ([1]; read-out: TLB Obsd (disease control rating), Table A, Compound 1 alone 0.2 ppm): 94%; pest or weed control at 1 ppm ([1]; read-out: TLB Obsd (disease control rating), Table A, Compound 1 alone 1 ppm): 100%; pest or weed control at 0.05 ppm ([1]; read-out: TLB Obsd (disease control rating), Table B, Compound 1 alone 0.05 ppm): 26%; pest or weed control at 0.1 ppm ([1]; read-out: TLB Obsd (disease control rating), Table B, Compound 1 alone 0.1 ppm): 53%; pest or weed control at 0.15 ppm ([1]; read-out: TLB Obsd (disease control rating), Table B, Compound 1 alone 0.15 ppm): 59%; pest or weed control at 0.2 ppm ([1]; read-out: TLB Obsd (disease control rating), Table B, Compound 1 alone 0.2 ppm): 56%; pest or weed control at 1 ppm ([1]; read-out: TLB Obsd (disease control rating), Table B, Compound 1 alone 1 ppm): 100%; pest or weed control at 0.05 ppm ([1]; read-out: TLB Obsd (disease control rating), Table C, Compound 1 alone 0.05 ppm): 17%; pest or weed control at 0.1 ppm ([1]; read-out: TLB Obsd (disease control rating), Table C, Compound 1 alone 0.1 ppm): 17%; pest or weed control at 0.15 ppm ([1]; read-out: TLB Obsd (disease control rating), Table C, Compound 1 alone 0.15 ppm): 57%; pest or weed control at 0.2 ppm ([1]; read-out: TLB Obsd (disease control rating), Table C, Compound 1 alone 0.2 ppm): 51%; pest or weed control at 1 ppm ([1]; read-out: TLB Obsd (disease control rating), Table C, Compound 1 alone 1 ppm): 99%; pest or weed control at 0.05 ppm ([1]; read-out: TLB Obsd, Table D, Compound 1 alone at 0.05 ppm): 32%; pest or weed control at 0.1 ppm ([1]; read-out: TLB Obsd, Table D, Compound 1 alone at 0.1 ppm): 52%; pest or weed control at 0.15 ppm ([1]; read-out: TLB Obsd, Table D, Compound 1 alone at 0.15 ppm): 90%; pest or weed control at 0.2 ppm ([1]; read-out: TLB Obsd, Table D, Compound 1 alone at 0.2 ppm): 67%; pest or weed control at 1 ppm ([1]; read-out: TLB Obsd, Table D, Compound 1 alone at 1 ppm): 100%; pest or weed control at 0.05 ppm ([1]; read-out: TLB Obsd, Table E, Compound 1 alone at 0.05 ppm): 33%; pest or weed control at 0.1 ppm ([1]; read-out: TLB Obsd, Table E, Compound 1 alone at 0.1 ppm): 75%; pest or weed control at 0.15 ppm ([1]; read-out: TLB Obsd, Table E, Compound 1 alone at 0.15 ppm): 92%; pest or weed control at 0.2 ppm ([1]; read-out: TLB Obsd, Table E, Compound 1 alone at 0.2 ppm): 90%; pest or weed control at 1 ppm ([1]; read-out: TLB Obsd, Table E, Compound 1 alone at 1 ppm): 100%; pest or weed control at 0.025 ppm ([2]; Compound 1 alone 0.025 ppm, Table H evaluation set, rating 100 = 100% disease control, read-out: CDM Obsd): 33%; pest or weed control at 0.025 ppm ([2]; Compound 1 alone 0.025 ppm, Table I evaluation set, read-out: CDM Obsd): 47%; pest or weed control at 0.025 ppm ([2]; Compound 1 alone 0.025 ppm, Table J evaluation set, read-out: CDM Obsd): 47%; pest or weed control at 0.025 ppm ([2]; Compound 1 alone 0.025 ppm, Table K evaluation set, read-out: CDM Obsd): 76%; pest or weed control at 0.025 ppm ([2]; Compound 1 alone 0.025 ppm, Table L evaluation set, read-out: CDM Obsd): 51%; pest or weed control at 0.05 ppm ([2]; Compound 1 alone 0.05 ppm, Table H evaluation set, read-out: CDM Obsd): 40%; pest or weed control at 0.05 ppm ([2]; Compound 1 alone 0.05 ppm, Table I evaluation set, read-out: CDM Obsd): 47%; pest or weed control at 0.05 ppm ([2]; Compound 1 alone 0.05 ppm, Table J evaluation set, read-out: CDM Obsd): 47%; pest or weed control at 0.05 ppm ([2]; Compound 1 alone 0.05 ppm, Table K evaluation set, read-out: CDM Obsd): 92%; pest or weed control at 0.05 ppm ([2]; Compound 1 alone 0.05 ppm, Table L evaluation set, read-out: CDM Obsd): 51%; pest or weed control at 0.075 ppm ([2]; Compound 1 alone 0.075 ppm, Table H evaluation set, read-out: CDM Obsd): 40%; pest or weed control at 0.075 ppm ([2]; Compound 1 alone 0.075 ppm, Table I evaluation set, read-out: CDM Obsd): 47%; pest or weed control at 0.075 ppm ([2]; Compound 1 alone 0.075 ppm, Table J evaluation set, read-out: CDM Obsd): 47%; pest or weed control at 0.075 ppm ([2]; Compound 1 alone 0.075 ppm, Table K evaluation set, read-out: CDM Obsd): 89%; pest or weed control at 0.075 ppm ([2]; Compound 1 alone 0.075 ppm, Table L evaluation set, read-out: CDM Obsd): 51%; pest or weed control at 0.1 ppm ([2]; Compound 1 alone 0.1 ppm, Table H evaluation set, read-out: CDM Obsd): 76%; pest or weed control at 0.1 ppm ([2]; Compound 1 alone 0.1 ppm, Table I evaluation set, read-out: CDM Obsd): 57%; pest or weed control at 0.1 ppm ([2]; Compound 1 alone 0.1 ppm, Table J evaluation set, read-out: CDM Obsd): 47%; pest or weed control at 0.1 ppm ([2]; Compound 1 alone 0.1 ppm, Table K evaluation set, read-out: CDM Obsd): 98%; pest or weed control at 0.1 ppm ([2]; Compound 1 alone 0.1 ppm, Table L evaluation set, read-out: CDM Obsd): 98%; pest or weed control at 0.125 ppm ([2]; Compound 1 alone 0.125 ppm, Table H evaluation set, read-out: CDM Obsd): 81%; pest or weed control at 0.125 ppm ([2]; Compound 1 alone 0.125 ppm, Table I evaluation set, read-out: CDM Obsd): 57%; pest or weed control at 0.125 ppm ([2]; Compound 1 alone 0.125 ppm, Table J evaluation set, read-out: CDM Obsd): 47%; pest or weed control at 0.125 ppm ([2]; Compound 1 alone 0.125 ppm, Table K evaluation set, read-out: CDM Obsd): 99%; pest or weed control at 0.125 ppm ([2]; Compound 1 alone 0.125 ppm, Table L evaluation set, read-out: CDM Obsd): 81%; pest or weed control at 0.05 ppm ([2]; Table A, Compound 1 alone 0.05 ppm, read-out: CDM Obsd (disease control rating)): 88%; pest or weed control at 0.1 ppm ([2]; Table A, Compound 1 alone 0.1 ppm, read-out: CDM Obsd (disease control rating)): 95%; pest or weed control at 0.15 ppm ([2]; Table A, Compound 1 alone 0.15 ppm, read-out: CDM Obsd (disease control rating)): 100%; pest or weed control at 0.2 ppm ([2]; Table A, Compound 1 alone 0.2 ppm, read-out: CDM Obsd (disease control rating)): 100%; pest or weed control at 1 ppm ([2]; Table A, Compound 1 alone 1 ppm, read-out: CDM Obsd (disease control rating)): 100%; pest or weed control at 0.05 ppm ([2]; Table B, Compound 1 alone 0.05 ppm, read-out: CDM Obsd (disease control rating)): 64%; pest or weed control at 0.1 ppm ([2]; Table B, Compound 1 alone 0.1 ppm, read-out: CDM Obsd (disease control rating)): 86%; pest or weed control at 0.15 ppm ([2]; Table B, Compound 1 alone 0.15 ppm, read-out: CDM Obsd (disease control rating)): 85%; pest or weed control at 0.2 ppm ([2]; Table B, Compound 1 alone 0.2 ppm, read-out: CDM Obsd (disease control rating)): 92%; pest or weed control at 1 ppm ([2]; Table B, Compound 1 alone 1 ppm, read-out: CDM Obsd (disease control rating)): 100%; pest or weed control at 0.05 ppm ([2]; Table C, Compound 1 alone 0.05 ppm, read-out: CDM Obsd (disease control rating)): 77%; pest or weed control at 0.1 ppm ([2]; Table C, Compound 1 alone 0.1 ppm, read-out: CDM Obsd (disease control rating)): 86%; pest or weed control at 0.15 ppm ([2]; Table C, Compound 1 alone 0.15 ppm, read-out: CDM Obsd (disease control rating)): 95%; pest or weed control at 0.2 ppm ([2]; Table C, Compound 1 alone 0.2 ppm, read-out: CDM Obsd (disease control rating)): 100%; pest or weed control at 1 ppm ([2]; Table C, Compound 1 alone 1 ppm, read-out: CDM Obsd (disease control rating)): 100%; pest or weed control at 0.05 ppm ([2]; Table D, Compound 1 alone at 0.05 ppm, read-out: CDM Obsd): 64%; pest or weed control at 0.1 ppm ([2]; Table D, Compound 1 alone at 0.1 ppm, read-out: CDM Obsd): 77%; pest or weed control at 0.15 ppm ([2]; Table D, Compound 1 alone at 0.15 ppm, read-out: CDM Obsd): 86%; pest or weed control at 0.2 ppm ([2]; Table D, Compound 1 alone at 0.2 ppm, read-out: CDM Obsd): 93%; pest or weed control at 1 ppm ([2]; Table D, Compound 1 alone at 1 ppm, read-out: CDM Obsd): 100%; pest or weed control at 0.025 ppm ([2]; Table F, Compound 1 alone at 0.025 ppm, read-out: CDM Obsd): 40%; pest or weed control at 0.05 ppm ([2]; Table F, Compound 1 alone at 0.05 ppm, read-out: CDM Obsd): 68%; pest or weed control at 0.075 ppm ([2]; Table F, Compound 1 alone at 0.075 ppm, read-out: CDM Obsd): 39%; pest or weed control at 0.1 ppm ([2]; Table F, Compound 1 alone at 0.1 ppm, read-out: CDM Obsd): 47%; pest or weed control at 0.125 ppm ([2]; Table F, Compound 1 alone at 0.125 ppm, read-out: CDM Obsd): 58%; pest or weed control at 0.025 ppm ([2]; Table G, Compound 1 alone at 0.025 ppm, read-out: CDM Obsd): 26%; pest or weed control at 0.05 ppm ([2]; Table G, Compound 1 alone at 0.05 ppm, read-out: CDM Obsd): 26%; pest or weed control at 0.075 ppm ([2]; Table G, Compound 1 alone at 0.075 ppm, read-out: CDM Obsd): 47%; pest or weed control at 0.1 ppm ([2]; Table G, Compound 1 alone at 0.1 ppm, read-out: CDM Obsd): 47%; pest or weed control at 0.125 ppm ([2]; Table G, Compound 1 alone at 0.125 ppm, read-out: CDM Obsd): 68%
